In PMC6054100, “Exploring the chemical space of the lysine-binding pocket of the first kringle domain of hepatocyte growth factor/scatter factor (HGF/SF) yields a new class of inhibitors of HGF/SF-MET binding” (Chemical Science, 2015):

What was measured:
Set-up in all cases: made in house; host or cells: Pichia pastoris
[1] = target: T1, NK1 (Homo sapiens, UniProt P14210); assay: SPR steady-state binding to immobilized NK1 (Biacore T100)
Protocol: Binding constants of piperazine-like compounds and fragments were determined using a Biacore T100 instrument. NK1 was immobilized on a CM5 chip by amine coupling to a density of 6000 RU. Compounds were stored as 100 mM stock solutions in water and serial dilutions were prepared in the running buffer (PBS pH 7.4, 0.05% Tween 20). The compound solutions were injected onto the surface of the chip at a flow rate of 30 μL min^–1, contact time was 1 min and dissociation time 1 min. Sensorgrams were analysed using the Biacore T100 evaluation software and the binding constants determined.

[2] = target: T1, NK1; assay: SPR fragment library screening against NK1; format: binding; settings: for Ranking order: based on fragment screening, rank among the 71 NK1 hits (ESI Tables S3-S7); for SPR response: normalised relative value against NK1
Protocol: Supplementary Materials and Methods
Fragment library screening and data analysis
Met567 (soluble truncated f ragment of the MET ectodomain, residues 25- 567), NK1 and t he SPH domain were immobilized on CM5 chips by amine coupling. NK1 was diluted into 10 m M phosphate pH 7.0 and the SPH domain into 10 mM acetate pH 5.5 to a final concentration of 2.5 μM and 1 μM, respectively, for coupling. The immobilization wizard within the Biacore T100 software was set to “aim for immobiliz ed level” of 8000 RU to achieve complete saturation of the chip surface.
W ith minor deviations, the procedure and conditions outlined below were used f or a ll screening s of an in-house fragment library of 1338 members against individual target proteins. The running buffer was PBS pH 7.4, 0.05% Tween 20, 0.25% DMSO (1% DMSO for Met567). Fragments were stored as 100 mM stock solutions in DMSO. Prior to screening, fragment samples were diluted to 500 μM (1 mM f or Met567) in running buffer.
Screening was performed in 96- we ll plates at a flow rate of 30 μl min-1 with 1 min sample injection f ollowed by dissociation f or 1 min and surf ace regeneration using 1 M NaCl f or 30 […]
post-regeneration baseline exceeded the pre- sample baseline by more than 10 RU, a second regeneration cycle with 50% ethylene glycol was used. In order to be able to correct for small variations in DMSO concentration between samples, eight solvent samples ranging from 0.012 to 1.5% DMSO were injected every 40th cycle. To monitor the binding capacity of the NK1, SPH and Met567 surfaces throughout the screening, injections of 500 μM HEPES (NK1), 0.25 μM Met567 (SPH) and 0.2 μM NK1 and 1% DMSO (Met567) were carried out every 40th cycle. The flow cell temperature was 25°C. NK1 and the SPH domain were immobilized on the same chip (channels 2 and 3 respectively) and were theref ore screened in parallel. Met567 was screened separately and results are published in an accompanying paper (W in t er et al. 2015, in revision).
For data analysis, fir st, all responses were reference and solvent corrected. 1 Next, equilibrium binding for every fragment was determined and hits established by applying several filters: sensorgram shape, upper and lower threshold. Typical sensorgrams from fragment screening show “square curves” in SPR due to the fast on and off rates and fragments not showing this response were discarded from further analysis. Binding levels are represented as response units (RU) but the SPR signal is a convolution of multiple parameters including target coupling density, target -binding activity, target molecular weight and molecular weight of each injected fragment. To be able to identif y hits accurately and to be able to compare responses between different plates and targets, data were normalised against these factors. First the theoretical maximum response for each fragment was calculated using equation 1:
RRmmm = CCCCCCCC ddCdCdd× MMffmCmdCd (Equation 1)
This RUmax value diff ers for each protein target because it depends on the molecular weight of the protein and the amount of protein immobilized on the chip (coupling density). The RUmax was then used to calculate the normalised relative SPR response:
NNNNNNNNNN NNNNr NrN SSR NNNrNrNN = RRcppppcppc× 100% (Equation 2) […]
fragment should cause upon binding. 100% response would be 1:1 binding wit h levels above 100% implying over-stoichiometric binding. […]
Fragment library screening to identify small molecule binders

[3] = target: T1, NK1; assay: 1H-15N TROSY-HSQC NMR chemical shift titration of 15N-labelled NK1; format: binding; settings: steady-state binding constants; piperazine-like compounds; 0.18 mM NK1, pH 7.2, 310 K; read-out: KD in NMR
Protocol: Ligand screening was performed by monitoring the chemical shift variations in ^1H-^15N TROSY-HSQC NMR spectra of the uniformly [^15N]-labelled NK1 protein (Fragai et al. 2015, in prep.) upon the addition of increasing concentrations of the investigated compounds.[43]–[45] The experiments were performed using 0.18 mM protein samples in 25 mM Tris, 100 mM NaCl and 0.01% sodium azide, at pH 7.2 with 10% D2O. The spectra were recorded at 310 K on a Bruker AVANCE 900 MHz spectrometer equipped with a TXI cryo-probe. Sample solutions were prepared from 1 M or 100 mM DMSO stock solutions of the ligands. The dissociation constant values (KD) were calculated by plotting the weighted average ^1H and ^15N chemical shifts of the residues experiencing significant variations as a function of ligand concentration added during the titration and considering the one site binding model.[46]

[4] = steady-state binding constant from SPR, MB605-related compounds (Table 4), read-out: KD
[5] = fragments 500 μM (ESI Tables S3-S7)
[6] = initial fragment screening, fragments 500 μM (Table 3)
[7] = steady-state binding constant from SPR, fragment hits (Table 3, text), read-out: KD
[8] = steady-state binding constant from SPR (ESI Tables S3-S7), read-out: KD

T1 sequence (P14210 32-210 isoform P14210-6 limits assumed): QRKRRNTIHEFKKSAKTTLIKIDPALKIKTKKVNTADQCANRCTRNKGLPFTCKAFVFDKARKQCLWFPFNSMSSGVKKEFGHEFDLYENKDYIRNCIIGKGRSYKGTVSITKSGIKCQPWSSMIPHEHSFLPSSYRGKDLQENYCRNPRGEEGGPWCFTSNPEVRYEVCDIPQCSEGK

Row | Compound | Ranking order [2] | SPR response [2, 5] | Kd [1, 8] | further results
1 | O=C(O)CCc1ccccc1 [501-520-0, hydrocinnamic acid] |  |  |  | Kd [1, 4]: 2200 ± 900 µM
2 | O=P(O)(O)CCc1ccccc1 [4672-30-4, 2-phenylethyl phosphonic acid] |  |  |  | Kd [1, 4]: 2200 ± 400 µM
3 | O=C(O)CCc1cccs1 [5928-51-8, 2-thiophenepropanoic acid] |  |  |  | Kd [1, 4]: 1100 ± 300 µM
4 | c1ccc2[nH]ncc2c1 [AT0381] | 44 | 53% |  | Kd ([1]; KD): 740 ± 60 µM; SPR response [2, 6]: 53%
5 | Nc1ncccn1 [CA023] | 46 | 52% |  | Kd [1, 7]: 770 ± 60 µM; SPR response [2, 6]: 52%
6 | Nc1ccc(F)cc1F [MB396] | 18 | 83% | 1100 µM | 
7 | Nc1ccncc1 [MB404] | 5 | 118% | 2800 µM | 
8 | O=C(O)c1coc2c1C(=O)CCC2 [MB417] | 17 | 87% |  | Kd [1, 7]: 420 ± 40 µM; SPR response [2, 6]: 87%
9 | FC(F)(F)c1cc[nH]n1 [MB925] | 48 | 52% | 1300 µM | 
10 | NC(=S)N1CCOCC1 [MB1082] | 43 | 53% |  | Kd [1, 7]: 370 ± 40 µM; SPR response [2, 6]: 53%
11 | NC(=S)c1ncc(C(F)(F)F)cc1N1CCCC1 [MB1218] | 37 | 57% | 17300 µM | 
12 | CC(=O)Nc1ccccc1F [MB1267] | 16 | 90% | 1600 µM | 
13 | Cc1cccc(CN)c1C [MB1274] | 7 | 105% | 1600 µM | 
14 | Cc1cccc(C)c1C#N [MB1283] | 13 | 94% |  | KD ([1]; steady-state binding constant from SPR, fragment hits (Table 3, text)): lowest affinity
15 | CNCc1cccnc1 [MB1290] | 9 | 102% | 1640 µM | 
16 | Nc1ccc(OC(F)F)cc1 [MB1293] | 22 | 72% | 5000 µM | 
17 | Cc1ccc(C(=O)O)cc1Cl [MB1306] | 21 | 77% | 2500 µM | 
18 | CCCc1ccc(C(C)=O)cc1 [MB1315] | 47 | 52% |  | Kd [1, 7]: 940 ± 90 µM; SPR response [2, 6]: 52%
19 | O=S(=O)(O)CCN1CCN(CCS(=O)(=O)O)CC1 [PIPES, reference compound] |  |  |  | Kd ([1]; steady-state binding constants, piperazine-like compounds, immobilized NK1, PBS pH 7.4, read-out: KD in SPR): 26600 ± 600 µM; Kd [3]: 45900 ± 4700 µM
20 | O=C(O)CCc1ccc(-c2ccccc2F)o1 [T5445870] |  |  |  | Kd [1, 4]: 2100 ± 300 µM
21 | O=C(O)CCc1cc2ccccc2o1 [T5480685] |  |  |  | Kd [1, 4]: 700 ± 200 µM

More lines, main results first:

Row | Ranking order [2] | SPR response [2, 5] | Kd [1, 8] | Compound | further results
22 | 23 | 72% | 4320 µM | Cc1cccc(CO)n1 [MB389] | 
23 | 36 | 59% | 1500 µM | Cc1nn(C)c(C)c1N [MB893] | 
24 | 45 | 53% |  | Cc1nc(CC(=O)O)cs1 [MB895] | Kd [1, 7]: 430 ± 50 µM; SPR response [2, 6]: 53%
25 | 24 | 71% | 1600 µM | N#Cc1ccsc1N [MB915] | 
26 | 41 | 54% | 1000 µM | Cc1cc(N)n(C)n1 [MB935] | 
27 | 39 | 56% | 30000 µM | Cc1cc(N)[nH]n1 [MB936] | 
28 | 6 | 107% | 6400 µM | CNCc1ccncc1 [MB1003] | 
29 | 19 | 83% | 1200 µM | Cc1nc(-c2ccc(C#N)cc2)cs1 [MB1236] | 
30 | 4 | 118% | 4200 µM | Cc1ccsc1CN [MB1237] | 
31 | 3 | 126% | 1800 µM | Cc1nc(C#N)cs1 [MB1250] | 
32 | 10 | 101% | 5200 µM | Cc1nc(C(N)=S)cs1 [MB1252] | 
33 | 11 | 98% | 2900 µM | COC(=O)c1ccccc1F [MB1253] | 
34 | 8 | 105% | 5600 µM | Cc1ccc(C#N)c(=O)[nH]1 [MB1260] | 
35 | 12 | 95% |  | COc1ccc(C#N)cn1 [MB1261] | Kd [1, 7]: 350 ± 40 µM; SPR response [2, 6]: 95%
36 | 15 | 90% |  | Cc1cccc(C(N)=O)c1C [MB1284] | Kd [1, 7]: 860 ± 70 µM; SPR response [2, 6]: 90%
37 | 2 | 131% | 2200 µM | Cc1cc(C)on1 [MB1299] | 
38 | 33 | 61% |  | Cc1cc(Cl)ccc1C(=O)O [MB1318] | Kd [1, 7]: 360 ± 40 µM; SPR response [2, 6]: 61%
